# Experimental data as given in ChEMBL document CHEMBL6134865, “Rational Design of Methylene Blue-Raloxifene Conjugates for Efficient Breast Tumor Elimination Triggered by ERα Degradation” (J Med Chem, 2025).
# Activity calls are given as the source filed them. The rule behind the calls is not given here.
# What was measured:
# [1] = Toxicity in female BALB/c mouse xenografted with human MCF7 cells assessed as effect on lung histology at 5 mg/kg, iv measured after 14 days by H and E staining based analysis; assay type: organism-based; settings: in vivo, 336 h, time 14 day
# [2] = Toxicity in female BALB/c mouse xenografted with human MCF7 cells assessed as change in body weight at 5 mg/kg, iv measured after 14 days; assay type: organism-based; settings: in vivo, 336 h, time 14 day
# MCF7 [3] = experiment: Induction of ROS generation in human MCF7 cells assessed as cell percentage with elevated ROS at 1 uM incubated for 6 hrs followed by irradiation with 660 nm 0.4 W/cm2 light for 3 min by DCFH-DA probe based flow cytometric analysis (reference value: 0.2 %); assay type: functional; settings: time 363 min, 6.05 h
# [4] = Toxicity in female BALB/c mouse xenografted with human MCF7 cells assessed as change in blood urea nitrogen level at 5 mg/kg, iv measured after 14 days; assay type: organism-based; settings: in vivo, 336 h, time 14 day
# [5] = Toxicity in female BALB/c mouse xenografted with human MCF7 cells assessed as effect on heart histology at 5 mg/kg, iv measured after 14 days by H and E staining based analysis; assay type: organism-based; settings: in vivo, 336 h, time 14 day
# MCF7 [6] = experiment: Antitumor activity against human MCF7 cells xenografted in female BALB/c mouse model assessed as tumor growth inhibition at 5 mg/kg, iv measured after 14 days with 660 nm 0.4 W/cm2 light irradiation for 5 mins at 4 hrs of incubation time relative to control; assay type: functional; settings: MCF7, light or radiation study, 336 h, time 14 day, read-out: TGI
# MCF7 [7] = experiment: Antitumor activity against human MCF7 cells xenografted in female BALB/c mouse model assessed as reduction in tumor weight at 5 mg/kg, iv measured after 14 days with 660 nm 0.4 W/cm2 light irradiation for 5 mins at 4 hrs of incubation time; assay type: functional, organism-based; settings: time 14.0 day
# MCF7 [8] = experiment: Antitumor activity against human MCF7 cells xenografted in female BALB/c mouse model assessed as damage in tumor tissue at 5 mg/kg, iv measured after 14 days with 660 nm 0.4 W/cm2 light irradiation for 5 mins at 4 hrs of incubation time by H and E staining based analysis; assay type: functional, organism-based; settings: time 14.0 day
# [9] = Toxicity in female BALB/c mouse xenografted with human MCF7 cells assessed as change in white blood cell level at 5 mg/kg, iv measured after 14 days; assay type: organism-based; settings: in vivo, 336 h, time 14 day
# [10] = Drug uptake in human MCF7 cell nucleus assessed as increase in red fluorescence at 1 uM incubated for 6 hrs by fluorescence imaging analysis; assay type: ADME, subcellular; settings: mcf7, 6 h
# [11] = Toxicity in female BALB/c mouse xenografted with human MCF7 cells assessed as change in AST level at 5 mg/kg, iv measured after 14 days; assay type: organism-based; settings: in vivo, 336 h, time 14 day
# in vivo [12] = settings: Sprague-Dawley, rat, iv, 5 mg/kg
# Description: Volume of distribution at steady state in Sprague-Dawley rat at 5 mg/kg, iv measured after 0.5 to 168 hrs by LC-MS analysis
# MCF7 [13] = experiment: cells; settings: Homo sapiens, MCF7, light or radiation study
# Description: Antiproliferative activity against human MCF7 cells assessed as inhibition of cell proliferation incubated for 48 hrs with 660 nm 0.4 W/cm2 light irradiation for 1 min at 6th hr of incubation time by MTT assay
# [14] = Toxicity in female BALB/c mouse xenografted with human MCF7 cells assessed as change in hematocrit level at 5 mg/kg, iv measured after 14 days; assay type: organism-based; settings: in vivo, 336 h, time 14 day
# MCF7 [15] = experiment: Antitumor activity against human MCF7 cells xenografted in female BALB/c mouse model assessed as tumor regression at 5 mg/kg, iv measured after 14 days with 660 nm 0.4 W/cm2 light irradiation for 5 mins at 4 hrs of incubation time (reference value: 122.9 mm3); assay type: functional; settings: time 14 day
# MCF7 [16] = experiment: Antiproliferative activity against human MCF7 cells assessed as inhibition of cell proliferation incubated for 48 hrs with 660 nm 0.2 to 1.5 W/cm2 light irradiation for 1 min at 6th hr of incubation time by MTT assay; assay type: functional, cell-based
# [17] = Cytotoxicity against human MCF-10A cells assessed as inhibition of cell proliferation incubated for 48 hrs in absence of light irradiation by MTT assay; assay type: toxicity, cell-based
# [18] = Toxicity in female BALB/c mouse xenografted with human MCF7 cells assessed as effect on liver histology at 5 mg/kg, iv measured after 14 days by H and E staining based analysis; assay type: organism-based; settings: in vivo, 336 h, time 14 day
# [19] = Toxicity in female BALB/c mouse xenografted with human MCF7 cells assessed as change in red blood cell level at 5 mg/kg, iv measured after 14 days; assay type: organism-based; settings: in vivo, 336 h, time 14 day
# [20] = Drug uptake in human MCF7 cell cytoplasm assessed as increase in red fluorescence at 1 uM incubated for 6 hrs by fluorescence imaging analysis; assay type: ADME, subcellular; settings: mcf7, 6 h
# [21] = Toxicity in female BALB/c mouse xenografted with human MCF7 cells assessed as change in hemoglobin level at 5 mg/kg, iv measured after 14 days; assay type: organism-based; settings: in vivo, 336 h, time 14 day
# MCF7 [22] = experiment: Induction of ROS generation in human MCF7 cells assessed as cell percentage with elevated ROS at 1 uM incubated for 6 hrs by DCFH-DA probe based flow cytometric analysis (reference value: 0.2 %); assay type: functional
# MCF7 [23] = experiment: cells; settings: Homo sapiens, MCF7, light or radiation study; remark: listed apart in the source
# Description: Antiproliferative activity against human MCF7 cells assessed as inhibition of cell proliferation incubated for 48 hrs with 660 nm 0.4 W/cm2 light irradiation for 5 min at 6th hr of incubation time by MTT assay
# in vivo [24] = settings: Sprague-Dawley, rat, iv, 5 mg/kg; remark: listed apart in the source
# Description: Cmax in Sprague-Dawley rat at 5 mg/kg, iv measured after 0.5 to 168 hrs by LC-MS analysis
# MCF7 [25] = experiment: cells; settings: Homo sapiens, MCF7, light or radiation study; remark: listed apart in the source
# Description: Antiproliferative activity against human MCF7 cells assessed as inhibition of cell proliferation incubated for 48 hrs with 660 nm 0.4 W/cm2 light irradiation for 2 min at 6th hr of incubation time by MTT assay
# MCF7 [26] = experiment: Induction of ROS generation in human MCF7 cells assessed as cell percentage with elevated ROS at 1 uM incubated for 6 hrs followed by irradiation with 660 nm 0.4 W/cm2 light for 1 min by DCFH-DA probe based flow cytometric analysis (reference value: 0.2 %); assay type: functional; settings: time 361 min, 6.017 h
structure (smiles),measurement,setting,value
CCN(CC)c1ccc2nc3c4ccccc4/c(=N\CCCCCCC(=O)NCCOc4ccc(C(=O)c5c(-c6ccc(O)cc6)sc6cc(O)ccc56)cc4)cc-3sc2c1,Activity,[1],Non-toxic
same,Activity,[2],Non-toxic
same,Activity,MCF7 [3],15%
same,Activity,[4],Non-toxic
same,Activity,[5],Non-toxic
same,inhibition in vivo at 5 mg/kg,MCF7 [6],118%
same,Activity,MCF7 [7],Active; Significant Performance Than Faslodex Observed
same,Activity,MCF7 [8],Active
same,Activity,[9],Non-toxic
same,Drug uptake,[10],Active
same,Activity,[11],Non-toxic
same,Vd,in vivo [12],108 L/kg
same,IC50,MCF7 [13],550 nM
same,Activity,[14],Non-toxic
same,Activity,MCF7 [15],45.3 mm3
same,Activity,MCF7 [16],Active
same,IC50 at 48 h,[17],> 100000 nM
same,Activity,[18],Non-toxic
same,Activity,[19],Non-toxic
same,Drug uptake,[20],Active
same,Activity,[21],Non-toxic
same,Activity,MCF7 [22],0.7%
same,IC50,MCF7 [23],130 nM
same,Cmax,in vivo [24],30.2 ng/mL
same,IC50,MCF7 [25],290 nM
same,Activity,MCF7 [26],5.5%
